Reference: paper PMC13071375, “Restriction endonuclease selective inhibition by β-cyclodextrin sulfate” (Bioscience Reports, 2025)
Where “and” joins values, the source holds several entries; their conditions need not be identical. Equal entries are not always repeated. Structures can show the parent of a compound that is named as a salt. Where two headings read alike, the source gives them in different places.

What was measured:
XapI = test system: XapI; set-up: method as in PMID 25581012; conditions: cited from earlier work
KpnI = test system: KpnI; set-up: method as in PMID 25581012; conditions: cited from earlier work
SacI = test system: SacI; set-up: method as in PMID 25581012; conditions: cited from earlier work
VspI = assay type: biochemical; conditions: for IC50: Nl-pBR322 substrate, 20 min digestion at 37°C, Buffer O
Method: (§2) Digestion time course studies were conducted for each RE by incubating 2 μl of NdeI-linearised pBR322 (2.5 ng/μl), 1 μl of RE (1.25 U/μl), 2 μl of appropriate buffer, and 15 μl of molecular biology grade water at 37°C for various times (Supplementary Figure S1). […] These times were used as the digestion time for the RE inhibition assays.
(§3) To determine the effects of β-CDsul treatment on REs, Nl-pBR322 was incubated at 37°C with EcoRI, VspI, or HindIII for the previously determined amount of time.
(§4) β-CDsul and EDTA stock solutions were made in molecular biology grade water, and dilution series were prepared at appropriate concentrations to give the necessary final concentrations of each in the assay mixture. The assay mixture composition was 2 μl of Nl-pBR322 (2.5 ng/μl), 1 μl of RE (1.25 U/μl), 2 μl of appropriate buffer, 1 μl of β-CDsul or EDTA at desired concentration, and 14 μl of molecular biology grade water. As a negative control, 1 μl extra of microbiology grade water was used instead of EDTA or β-CDsul. After the appropriate amount of incubation time at 37°C, the REs were thermally inactivated by incubation at 65°C for 20 min.
(§5) Electrophoresis gel solution was prepared using 0.8% (w/v) agarose (Thermo Scientific™ Agarose I (Molecular Biology Grade)) with 1× TBE Buffer (Thermo Scientific™ TBE Buffer (Tris–borate–EDTA) (10×)). The mixture was heated until the agarose was completely dissolved and the solution became clear. Sybr Safe DNA stain (1% (v/v), Invitrogen™ SYBR™ Safe DNA Gel Stain) was added into the agarose solution. The final solution was poured into the gel tray and cooled down to room temperature (25°C). […]
(§6) Gel images were captured using a UV-transilluminator capturing system (Syngene™ Ingenius 3 Manual Gel Documentation System) with the following parameters: resolution: 3.0 MP, bit depth: 12/16 bit, and wavelength: 302 nm. The images were analysed using GelAnalyzer [19] software by calculating the normalised intensities of fragment bands.

EcoRI = target: T1, EcoRI (Escherichia coli, UniProt P00642); assay type: biochemical
T1 construct: purchased Thermo Fisher Scientific ER0271
T1 sequence (P00642 2-277): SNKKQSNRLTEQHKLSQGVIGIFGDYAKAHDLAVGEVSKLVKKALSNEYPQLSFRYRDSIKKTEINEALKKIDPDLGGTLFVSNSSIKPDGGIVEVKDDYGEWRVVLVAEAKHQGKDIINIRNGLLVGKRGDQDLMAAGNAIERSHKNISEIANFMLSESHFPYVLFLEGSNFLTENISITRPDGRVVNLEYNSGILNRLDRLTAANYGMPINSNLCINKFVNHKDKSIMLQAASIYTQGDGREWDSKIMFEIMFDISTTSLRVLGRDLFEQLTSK
Method: as §2, §3, §4
Electrophoresis gel solution was prepared using 0.8% (w/v) agarose (Thermo Scientific™ Agarose I (Molecular Biology Grade)) with 1× TBE Buffer (Thermo Scientific™ TBE Buffer (Tris–borate–EDTA) (10×)). The mixture was heated until the agarose was completely dissolved and the solution became clear. Sybr Safe DNA stain (1% (v/v), Invitrogen™ SYBR™ Safe DNA Gel Stain) was added into the agarose solution. The final solution was poured into the gel tray and cooled down to room temperature (25°C). Ten microliters of samples from digestion experiments was mixed well with 1 μl of 500× diluted SYBR Safe Gel Stain (ThermoFisher Scientific™ Invitrogen, catalogue number S33102) and 1 μl of 5× diluted FlashGel Loading Dye (Lonza Bioscience, catalogue number 50462) and then loaded into wells. A FlashGel™ Dock system was used for electrophoresis with a voltage of 0–300 VDC, power of 15 W, and current of 50 mA.
as §6

HindIII [1] = target: T2, HindIII (Haemophilus influenzae, UniProt P43870); assay: biochemical; conditions: Nl-pBR322 substrate, 40 min digestion at 37°C, Buffer R
T2 sequence (P43870 whole entry): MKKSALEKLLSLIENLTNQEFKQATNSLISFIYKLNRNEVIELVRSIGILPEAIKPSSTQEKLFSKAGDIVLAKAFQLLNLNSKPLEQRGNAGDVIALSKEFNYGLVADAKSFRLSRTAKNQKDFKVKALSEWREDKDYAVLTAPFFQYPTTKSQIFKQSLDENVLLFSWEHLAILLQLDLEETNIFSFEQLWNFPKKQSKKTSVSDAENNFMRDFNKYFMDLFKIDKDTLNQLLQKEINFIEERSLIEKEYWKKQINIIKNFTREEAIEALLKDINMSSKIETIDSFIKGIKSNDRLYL
Method: as §2, §3, §4, §5, §6

REs = test system: REs; set-up: method as in PMID 25126898; conditions: cited from earlier work
HindIII [2] = target: T2, HindIII; set-up: purchased Thermo Fisher Scientific ER0501; method as in PMID 25126898; conditions: digestion of λ DNA; cited from earlier work
HindIII [3] = target: T2, HindIII; conditions: read-out: IC50 HindIII; Nl-pBR322 substrate, 40 min digestion at 37°C, Buffer R
Method: as §2, §3, §4, §5, §6

Nrul = test system: Nrul; set-up: method as in PMID 25126898; conditions: digestion of λ DNA; cited from earlier work
EcoRI and VspI [4] = assay: Co-digestion assay of Nl-pBR322 with EcoRI and VspI (dual RE system); assay type: biochemical
Method: (§1) The digestion time was either variable or fixed at 120 min for the variable concentration experiment to achieve full digestion. The composition of the components with the co-digestion assays was more complex than single digestion systems due to the need for simultaneously optimising the activity of each RE in the non-ideal buffer system of the other RE.

EcoRI and VspI [5] = test system: T3, EcoRI and VspI; assay: as above; assay type: biochemical
T3 construct: purchased Thermo Fisher Scientific ER0271, ER0911
Method: as §1

[6] = Nl-pBR322 substrate, 20 min digestion at 37°C, Buffer EcoRI, read-out: IC50 EcoRI
[7] = 10 μM β-CDsul, time course 30–240 min

Q: Which IC50 (XapI; linearised pGL3-Basic DNA) does the source give for `O=C1N2CN3C(=O)N4CN5C(=O)N6CN7C(=O)N8CN9C(=O)N%10CN%11C(=O)N%12CN%13C(=O)N%14CN1C1C2N2CN%15C(=O)N(CN%16C(=O)N(CN%17C(=O)N(CN%18C(=O)N(CN%19C(=O)N(CN%20C(=O)N(CN1C2=O)C%14C%13%20)C%12C%11%19)C%10C9%18)C8C7%17)C6C5%16)C4C3%15` (stereo not drawn) [CB7] here?
A: ~500 µM

Q: What about the IC50 (XapI; plasmid pGL3-Basic DNA) of the same molecule?
A: ~500 µM

Q: And the IC50 (KpnI; linearised pGL3-Basic DNA)?
A: ~200 µM

Q: And the IC50 (KpnI; plasmid pGL3-Basic DNA)?
A: ~90 µM

Q: And the IC50 (SacI; linearised pGL3-Basic DNA)?
A: ~350 µM

Q: And the IC50 (SacI; plasmid pGL3-Basic DNA)?
A: ~250 µM

Q: What does the source list for `O=C(O)CN(CCN(CC(=O)O)CC(=O)O)CC(=O)O` [EDTA]?
A: IC50 (VspI): 12 µM; IC50 (EcoRI; [6]): 18 µM and 17 µM; IC50 (EcoRI; all three enzymes, Nl-pBR322, read-out: range of IC50 values across EcoRI, HindIII and VspI): 12 to 17 µM; IC50 (HindIII [1]): 13 µM and 12 µM

Q: For `OC[C@H]1O[C@@H]2O[C@H]3[C@H](O)[C@@H](O)[C@@H](O[C@H]4[C@H](O)[C@@H](O)[C@@H](O[C@H]5[C@H](O)[C@@H](O)[C@@H](O[C@H]6[C@H](O)[C@@H](O)[C@@H](O[C@H]7[C@H](O)[C@@H](O)[C@@H](O[C@H]8[C@H](O)[C@@H](O)[C@@H](O[C@H]1[C@H](O)[C@H]2O)O[C@@H]8CO)O[C@@H]7CO)O[C@@H]6CO)O[C@@H]5CO)O[C@@H]4CO)O[C@@H]3CO` [β-CD], which “inhibition of REs” value (REs) is on record?
A: no inhibition was observed

Q: Which IC50 (VspI) does the source give for `O=S(=O)(O)OCC1OC2OC3C(COS(=O)(=O)O)OC(OC4C(COS(=O)(=O)O)OC(OC5C(COS(=O)(=O)O)OC(OC6C(COS(=O)(=O)O)OC(OC7C(COS(=O)(=O)O)OC(OC8C(COS(=O)(=O)O)OC(OC1C(OS(=O)(=O)O)C2OS(=O)(=O)O)C(OS(=O)(=O)O)C8OS(=O)(=O)O)C(OS(=O)(=O)O)C7OS(=O)(=O)O)C(OS(=O)(=O)O)C6OS(=O)(=O)O)C(OS(=O)(=O)O)C5OS(=O)(=O)O)C(OS(=O)(=O)O)C4OS(=O)(=O)O)C(OS(=O)(=O)O)C3OS(=O)(=O)O` (stereo not drawn) [β-CDsul, β-cyclodextrin sulfate] here?
A: 133 µM

Q: What about the “fold difference in IC50 against VspI and HindIII” value (VspI; VspI vs HindIII) of the same molecule?
A: two-fold

Q: What about the “fold difference in IC50 values, EcoRI vs HindIII or VspI” value (EcoRI; EcoRI vs HindIII or VspI) of the same molecule?
A: 13- to 27 fold

Q: And the IC50 (EcoRI; [6])?
A: 5 µM

Q: What about the “fold more potent at inhibiting EcoRI compared with HindIII” value (EcoRI; ratio of IC50s, EcoRI vs HindIII) of the same molecule?
A: 13 fold

Q: What about the “fold more potent at inhibiting EcoRI compared with VspI” value (EcoRI; ratio of IC50s, EcoRI vs VspI) of the same molecule?
A: about 27 fold

Q: And the IC50 (HindIII [2])?
A: 6 µM

Q: And the IC50 (HindIII [3])?
A: 65 µM

Q: And the IC50 (Nrul)?
A: 3000 nM

Q: And the “time of maximum concentration of fragment A in EcoRI/VspI co-digestion” value (EcoRI and VspI [4]; [7])?
A: 60 min

Q: What about the “digestion in EcoRI/VspI co-digestion” value (EcoRI and VspI [4]; Five hundred micromolar β-CDsul, 120 min) of the same molecule?
A: no digestion by either RE

Q: And the “decrease of fragment A concentration (EcoRI action) in EcoRI/VspI co-digestion” value (EcoRI and VspI [5]; [7])?
A: does not decrease until 240 min

Q: And the “EcoRI inhibition in EcoRI/VspI co-digestion (fragment A concentration)” value (EcoRI and VspI [5]; between 5 and 10 μM β-CDsul, 120 min, still no Nl-pBR322, VspI less affected)?
A: significant increase in EcoRI inhibition
